Measured values reported in US12291501B2 (University of Florida Research Foundation, Inc., priority 2021, dated 2025).
Values joined by “and” are separate entries in the source; they are usually repeats but may differ in a detail not shown here. Identical values can stand only once.

Legend:
Assay type in all cases: cell-based
α3β4 nAChR = target: T1, α3β4 nAChR (Homo sapiens, UniProt P30926+P32297); experiment: Inhibition of control ACh responses by co-application, α3β4 nAChR in oocytes; conditions: 3 μM compound co-applied with ACh; fraction of control ACh response
T1 construct: expressed in transfected cells; host or cells: Xenopus laevis oocytes
Description: (§1) Initial profiling against heteromeric receptors: The test compounds for their ability to activate or inhibit other nAChR subtypes were evaluated. Agonist activity was evaluated by applying the compounds at 100 or 30 μM to human α4β2 and α3β4 as well as to mouse muscle α1β1εδ nAChR expressed in Xenopus oocytes. […] The inhibitory activity was generally low (Table 3).
(§2) Molecular Biology: Plasmid DNAs encoding the human α7 and heteromeric nAChR were obtained from Jon Lindstrom (University of Pennsylvania, Philadelphia, PA). Mouse muscle subunit clones were obtained from Jim Boulter (Salk Institute, La Jolla CA) and Paul Gardner (Dartmouth, Hanover NH). The human resistance-to-cholinesterase 3 ([…]) clone was obtained from Millet Treinin (Hebrew University, Jerusalem, Israel) and RNA co-injected with α7 to improve the level and speed of receptor expression without affecting their pharmacological properties. Plasmid DNA encoding the human α10 nAChR was obtained from J. Michael McIntosh. Plasmid DNA encoding the human α9 nAChR and the human receptor-associated protein of the synapse (RAPSYN) with codon optimization for expression in Xenopus laevis were obtained from Katrin Richter. RAPSYN RNA was co-injected with the α9 and α10 to improve expression (Richter et al., (2022) Front. Cell Neurosci. 16: 779081). After linearization and purification of the plasmid DNAs, RNAs were prepared using the mMessage mMachine in vitro RNA transcription kit (Ambion, Austin, TX). Frogs were maintained in the Animal Care Service facility of the University of Florida, and all procedures were approved by the University of Florida Institutional Animal Care and Use Committee (approval number 202002669). In brief, the animals were first anesthetized for 15-20 min in 1.5 l frog tank water containing 1 g of MS-222 buffered with sodium bicarbonate. Oocytes were obtained surgically from mature female Xenopus laevis (Nasco, Ft. Atkinson WI, USA) and treated with 1.4 mg/ml type 1 collagenase (Worthington Biochemicals, Freehold NJ, USA) for 2-4 h at rt in Ca2+-free Barth's solution (88 mM NaCl, 1 mM KCl, 2.38 mM NaHCO3, 0.82 mM MgSO4, 15 mM HEPES, and 12 mg/l tetracycline, pH 7.6) to remove the ovarian tissue and the follicular layers. Stage V oocytes were injected with 4-6 ng CHRNA7 RNA and 2-3 ng RIC3 RNA (2:1 ratio) in 50 nl water, or with 12 ng CHRNA9 RNA and 3 ng RAPSN RNA, or along with 12 ng CHRNA10 RNA in 50 nl water. Oocytes were maintained in Barth's solution containing 0.32 mM Ca(NO3)2 and 0.41 mM CaCl2, and recordings were conducted 2-20 days after injection.
(§3) Electrophysiology: Two-electrode voltage-clamp experiments were conducted using OpusXpress 6000A (Molecular Devices, Union City CA, USA). Both the voltage and current electrodes were filled with 3 M KCl. Oocytes were voltage-clamped at −60 mV at rt. The oocytes were perfused with Ringer's solution (115 mM NaCl, 2.5 mM KCl, 1.8 mM CaCl2, 10 mM HEPES, 1 μM atropine, pH 7.2) at 2 ml/min. […] Drug applications were 12 s in duration followed by 181 s washout periods.
(§4) The responses were calculated as both peak-current amplitudes and net charge. Data were collected at 50 Hz, filtered at 20 Hz, and analyzed by Clampfit (Molecular Devices) and Excel (Microsoft, Redmond, WA, United States). Data are expressed as means±SEM from at least five oocytes for each experiment and plotted with Kaleidagraph 4.5.2 (Abelbeck Software, Reading, PA, United States). Each episode of data acquisition was a total of 210 s and included an initial 30 s period used to define the baseline for the drug-evoked responses. After 30 s, drugs were applied, and the following 120 s were defined as the drug response period for analysis. […] The values for the curve fits were generated using the Levenberg-Marquardt algorithm to obtain the best Chi-Square fit to the Hill equation using the Kaleidagraph 4.5.2 plotting program. The errors in the tables are the calculated standard errors of the fit parameters based on the goodness of fit.

α9 nAChR = target: T2, α9 nAChR (Homo sapiens, UniProt Q9UGM1); experiment: Two-electrode voltage-clamp, agonist concentration-response, α9 nAChR in Xenopus oocytes; conditions: for EC50 / α9 Imax: peak currents, ± standard error of fit; for α9 Imax: relative to ACh (Imax = 1)
T2 construct: expressed in transfected cells; host or cells: Xenopus laevis oocytes, injected with in vitro transcribed RNA
Text: (§5) Electrophysiology: Xenopus oocytes were microinjected with RNAs to produce functional nAChR which were characterized by two-electrode voltage-clamp measurements. FIGS. 5A-7D present concentration-response curves for the new compounds evaluated with α7, α9, and α9α10 receptors. Table 1 presents the values for Imax and EC50 with these receptors and Table 2 summarizes inhibition data for the compounds with heteromeric nAChR.
as §2, §3
as §4, with “The errors in the tables are the calculated standard errors of the fit parameters based on the goodness of fit.” left out

α4β2 nAChR = target: T3, α4β2 nAChR (Homo sapiens, UniProt P17787+P43681); experiment: Inhibition of control ACh responses by co-application, α4β2 nAChR in oocytes; conditions: 3 μM compound co-applied with ACh; fraction of control ACh response
T3 construct: expressed in transfected cells; host or cells: Xenopus laevis oocytes
Description: as §1, §2, §3, §4

α7 nAChR [1] = target: T4, α7 nAChR (Homo sapiens, UniProt P36544); experiment: α7 responses to drugs co-applied with the PAM PNU-120596 (silent agonism); conditions: drug 30 μM + 10 μM PNU-120596; normalized to 30 μM ACh + 10 μM PNU-120596
T4 construct: expressed in transfected cells; host or cells: Xenopus laevis oocytes, injected with in vitro transcribed RNA
Text: (§6) Molecular Biology: Plasmid DNAs encoding the human α7 and heteromeric nAChR were obtained from Jon Lindstrom (University of Pennsylvania, Philadelphia, PA). Mouse muscle subunit clones were obtained from Jim Boulter (Salk Institute, La Jolla CA) and Paul Gardner (Dartmouth, Hanover NH). […] Plasmid DNA encoding the human α10 nAChR was obtained from J. Michael McIntosh. Plasmid DNA encoding the human α9 nAChR and the human receptor-associated protein of the synapse (RAPSYN) with codon optimization for expression in Xenopus laevis were obtained from Katrin Richter. […] After linearization and purification of the plasmid DNAs, RNAs were prepared using the mMessage mMachine in vitro RNA transcription kit (Ambion, Austin, TX). […] Oocytes were maintained in Barth's solution containing 0.32 mM Ca(NO3)2 and 0.41 mM CaCl2, and recordings were conducted 2-20 days after injection.
(§7) Electrophysiology: Two-electrode voltage-clamp experiments were conducted using OpusXpress 6000A (Molecular Devices, Union City CA, USA). Both the voltage and current electrodes were filled with 3 M KCl. Oocytes were voltage-clamped at −60 mV at rt.
as §4

α9α10 nAChR = target: T5, α9α10 nAChR (Homo sapiens, UniProt Q9GZZ6+Q9UGM1); experiment: Two-electrode voltage-clamp, agonist concentration-response, α9α10 nAChR in Xenopus oocytes; conditions: for EC50 / α9α10 Imax: peak currents, ± standard error of fit; for α9α10 Imax: relative to ACh (Imax = 1)
T5 construct: expressed in transfected cells; host or cells: Xenopus laevis oocytes, injected with in vitro transcribed RNA
Text: as §5, §2, §3
as §4, with “The errors in the tables are the calculated standard errors of the fit parameters based on the goodness of fit.” left out

α7 nAChR [2] = target: T4, α7 nAChR; experiment: Two-electrode voltage-clamp, agonist concentration-response, α7 nAChR in Xenopus oocytes; conditions: for EC50 / α7 Imax: net charge, ± standard error of fit; for α7 Imax: relative to ACh (Imax = 1)
Text: as §5, §6, §7, §4

α1β1εδ nAChR = target: T6, α1β1εδ nAChR (Mus musculus, UniProt P02716+P04756+P09690+P20782); experiment: Inhibition of control ACh responses by co-application, muscle α1β1εδ nAChR in oocytes; conditions: 3 μM compound co-applied with ACh; fraction of control ACh response
T6 construct: expressed in transfected cells; host or cells: Xenopus laevis oocytes
Description: as §1, §2, §3, §4

[3] = 3e vs larger ammonium analogs, 3h relative to 3g

T2 sequence (Q9UGM1 26-479 limits assumed): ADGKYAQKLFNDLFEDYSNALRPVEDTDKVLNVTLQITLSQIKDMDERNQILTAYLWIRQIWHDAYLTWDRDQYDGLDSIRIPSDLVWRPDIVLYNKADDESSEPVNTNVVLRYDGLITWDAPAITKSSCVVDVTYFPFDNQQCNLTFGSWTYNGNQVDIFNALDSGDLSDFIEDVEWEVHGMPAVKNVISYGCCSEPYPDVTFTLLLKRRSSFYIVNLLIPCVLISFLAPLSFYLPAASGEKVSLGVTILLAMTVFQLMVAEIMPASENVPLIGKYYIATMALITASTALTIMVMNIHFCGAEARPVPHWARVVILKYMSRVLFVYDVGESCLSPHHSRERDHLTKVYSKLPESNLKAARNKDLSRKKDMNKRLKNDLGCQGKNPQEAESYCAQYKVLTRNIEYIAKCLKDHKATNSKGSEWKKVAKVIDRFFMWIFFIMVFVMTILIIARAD
T5 sequence (Q9UGM1 26-479 limits assumed): as above
T5 sequence (Q9GZZ6 25-450): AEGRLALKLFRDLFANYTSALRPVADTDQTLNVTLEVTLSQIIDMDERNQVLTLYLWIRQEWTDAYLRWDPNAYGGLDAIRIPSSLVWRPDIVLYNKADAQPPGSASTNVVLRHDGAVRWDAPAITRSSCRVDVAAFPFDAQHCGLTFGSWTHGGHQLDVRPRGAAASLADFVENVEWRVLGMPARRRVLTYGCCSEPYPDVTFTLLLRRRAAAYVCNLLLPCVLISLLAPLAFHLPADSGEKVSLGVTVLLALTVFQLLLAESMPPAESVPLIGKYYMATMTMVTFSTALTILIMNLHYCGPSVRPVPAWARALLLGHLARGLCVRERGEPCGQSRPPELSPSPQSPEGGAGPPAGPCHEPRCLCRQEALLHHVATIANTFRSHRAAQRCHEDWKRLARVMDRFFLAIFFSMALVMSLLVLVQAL
T6 sequence (P04756 21-457): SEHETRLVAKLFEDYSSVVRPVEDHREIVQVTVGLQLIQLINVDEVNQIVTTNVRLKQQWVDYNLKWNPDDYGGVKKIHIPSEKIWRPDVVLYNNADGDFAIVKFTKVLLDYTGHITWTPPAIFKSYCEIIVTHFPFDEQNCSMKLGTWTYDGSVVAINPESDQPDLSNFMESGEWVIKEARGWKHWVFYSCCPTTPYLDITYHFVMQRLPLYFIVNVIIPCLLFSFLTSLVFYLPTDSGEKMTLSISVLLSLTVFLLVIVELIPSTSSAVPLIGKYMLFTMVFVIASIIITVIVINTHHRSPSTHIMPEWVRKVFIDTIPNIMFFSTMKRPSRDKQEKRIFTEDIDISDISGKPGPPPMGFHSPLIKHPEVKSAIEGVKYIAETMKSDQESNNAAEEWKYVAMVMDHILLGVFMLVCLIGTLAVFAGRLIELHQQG
T6 sequence (P09690 24-501): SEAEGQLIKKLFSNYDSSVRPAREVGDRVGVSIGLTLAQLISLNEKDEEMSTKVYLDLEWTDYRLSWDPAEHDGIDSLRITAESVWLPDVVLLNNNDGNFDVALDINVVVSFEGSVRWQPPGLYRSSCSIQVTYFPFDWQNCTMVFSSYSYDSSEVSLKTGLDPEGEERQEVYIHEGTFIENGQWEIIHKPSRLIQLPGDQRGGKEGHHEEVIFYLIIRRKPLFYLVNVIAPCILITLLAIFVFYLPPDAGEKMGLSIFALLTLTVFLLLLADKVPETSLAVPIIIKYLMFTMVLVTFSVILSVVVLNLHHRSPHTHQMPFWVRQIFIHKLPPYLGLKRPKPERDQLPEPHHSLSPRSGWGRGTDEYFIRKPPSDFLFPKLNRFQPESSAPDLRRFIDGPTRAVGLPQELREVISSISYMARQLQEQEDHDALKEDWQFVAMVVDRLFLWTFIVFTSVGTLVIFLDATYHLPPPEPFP
T6 sequence (P20782 21-493): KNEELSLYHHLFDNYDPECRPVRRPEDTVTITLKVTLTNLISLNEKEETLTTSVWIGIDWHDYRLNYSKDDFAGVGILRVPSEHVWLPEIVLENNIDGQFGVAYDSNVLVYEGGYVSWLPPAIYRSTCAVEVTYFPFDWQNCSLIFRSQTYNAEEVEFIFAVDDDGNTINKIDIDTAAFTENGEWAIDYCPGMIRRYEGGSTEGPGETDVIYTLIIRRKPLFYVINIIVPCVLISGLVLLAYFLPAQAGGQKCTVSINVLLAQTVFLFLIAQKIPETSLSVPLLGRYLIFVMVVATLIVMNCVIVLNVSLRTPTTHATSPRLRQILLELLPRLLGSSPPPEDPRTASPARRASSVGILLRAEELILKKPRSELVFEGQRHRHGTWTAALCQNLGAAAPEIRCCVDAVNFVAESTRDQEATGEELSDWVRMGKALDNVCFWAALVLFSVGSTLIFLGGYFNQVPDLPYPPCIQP
T6 sequence (P02716 25-520): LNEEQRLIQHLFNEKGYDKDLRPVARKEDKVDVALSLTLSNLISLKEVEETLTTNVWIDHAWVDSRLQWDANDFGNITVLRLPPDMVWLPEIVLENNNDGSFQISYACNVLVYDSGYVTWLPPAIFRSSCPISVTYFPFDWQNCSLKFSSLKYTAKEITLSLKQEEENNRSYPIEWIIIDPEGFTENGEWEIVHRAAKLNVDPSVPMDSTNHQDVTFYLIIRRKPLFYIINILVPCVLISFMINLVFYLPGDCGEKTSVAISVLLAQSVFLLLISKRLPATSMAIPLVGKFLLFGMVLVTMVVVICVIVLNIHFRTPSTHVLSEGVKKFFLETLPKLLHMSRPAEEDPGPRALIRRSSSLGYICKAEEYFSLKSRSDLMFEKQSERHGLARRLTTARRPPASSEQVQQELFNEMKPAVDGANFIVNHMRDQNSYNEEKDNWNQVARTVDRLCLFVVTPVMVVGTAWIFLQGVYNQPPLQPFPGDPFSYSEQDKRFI
T3 sequence (P43681 29-627 limits assumed): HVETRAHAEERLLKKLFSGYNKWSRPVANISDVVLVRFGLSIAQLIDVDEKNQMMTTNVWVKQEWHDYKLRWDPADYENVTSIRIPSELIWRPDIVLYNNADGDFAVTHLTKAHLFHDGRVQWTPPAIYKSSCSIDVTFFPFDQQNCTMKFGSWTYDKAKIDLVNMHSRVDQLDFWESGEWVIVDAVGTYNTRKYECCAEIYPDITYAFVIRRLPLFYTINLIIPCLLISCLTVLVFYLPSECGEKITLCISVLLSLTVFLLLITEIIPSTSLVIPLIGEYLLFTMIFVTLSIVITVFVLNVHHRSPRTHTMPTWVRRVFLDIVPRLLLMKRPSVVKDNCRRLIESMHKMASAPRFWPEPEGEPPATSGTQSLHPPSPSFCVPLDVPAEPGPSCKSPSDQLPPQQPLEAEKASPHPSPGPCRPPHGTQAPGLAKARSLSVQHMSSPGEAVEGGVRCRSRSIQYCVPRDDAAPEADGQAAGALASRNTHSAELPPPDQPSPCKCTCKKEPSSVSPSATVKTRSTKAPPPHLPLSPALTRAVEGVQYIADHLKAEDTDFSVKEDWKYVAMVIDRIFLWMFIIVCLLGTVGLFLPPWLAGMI
T3 sequence (P17787 26-502): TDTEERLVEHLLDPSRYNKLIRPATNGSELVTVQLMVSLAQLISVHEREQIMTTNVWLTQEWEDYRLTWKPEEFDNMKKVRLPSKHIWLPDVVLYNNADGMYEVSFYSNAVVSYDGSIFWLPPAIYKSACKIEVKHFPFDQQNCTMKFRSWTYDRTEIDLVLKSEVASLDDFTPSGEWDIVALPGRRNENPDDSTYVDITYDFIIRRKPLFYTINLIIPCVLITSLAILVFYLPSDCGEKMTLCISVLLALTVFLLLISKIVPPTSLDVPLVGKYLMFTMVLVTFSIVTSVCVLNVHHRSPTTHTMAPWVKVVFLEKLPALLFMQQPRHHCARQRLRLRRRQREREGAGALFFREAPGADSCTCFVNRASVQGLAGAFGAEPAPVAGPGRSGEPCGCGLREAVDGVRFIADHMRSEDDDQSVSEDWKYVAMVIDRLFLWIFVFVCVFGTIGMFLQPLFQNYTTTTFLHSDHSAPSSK
T4 sequence (P36544 23-502): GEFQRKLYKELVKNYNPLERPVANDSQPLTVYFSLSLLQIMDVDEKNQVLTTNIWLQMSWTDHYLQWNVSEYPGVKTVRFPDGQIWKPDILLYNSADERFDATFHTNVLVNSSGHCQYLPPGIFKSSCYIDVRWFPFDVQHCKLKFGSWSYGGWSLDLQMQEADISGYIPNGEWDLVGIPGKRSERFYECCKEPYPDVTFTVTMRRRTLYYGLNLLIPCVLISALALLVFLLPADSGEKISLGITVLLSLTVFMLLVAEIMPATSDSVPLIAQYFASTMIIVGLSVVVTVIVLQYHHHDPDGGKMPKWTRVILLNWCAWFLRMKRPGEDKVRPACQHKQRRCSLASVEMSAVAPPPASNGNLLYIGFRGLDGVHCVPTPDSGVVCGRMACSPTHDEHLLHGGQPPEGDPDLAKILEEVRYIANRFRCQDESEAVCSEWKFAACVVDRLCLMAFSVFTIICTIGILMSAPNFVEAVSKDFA

With `CC[N+]1(CC)CCN(c2ccc(C(=O)Nc3ccccn3)cc2)CC1.[I-]` [Compound 3c, 1,1-diethyl-4-(4-(pyridin-2-ylcarbamoyl)phenyl)piperazin-1-ium iodide] the “Effect of co-application on the control ACh responses, α3β4” value (“Effect of co-application … α3β4” below) (α3β4 nAChR) was 0.789 ± 0.057, the EC50 (α9 nAChR) was 18 ± 36 µM and the “α9 Imax” value (α9 nAChR) was 1.18 ± 0.39. For the same molecule, the “Effect of co-application on the control ACh responses, α4β2” value (from here on “Effect of co-application … α4β2”) (α4β2 nAChR) was 0.697 ± 0.027, the “Response co-applied with PNU-120596, normalized to ACh co-applied with PNU-120596” value (α7 nAChR [1]) was 0.12 and the “Agonist character / efficacy at α9α10” value (α9α10 nAChR) was “efficacious agonist”. The EC50 (α9α10 nAChR) was 1.18 ± 0.26 µM, the “Fold better potency for α9α10 relative to α9 homomers” value (α9α10 nAChR; ratio of EC50 values) was 10 fold and the “α9α10 Imax” value (α9α10 nAChR) was 0.94 ± 0.04. For the same molecule, the “Agonist character / efficacy at α7” value (α7 nAChR [2]) was “partial agonists”, the EC50 (α7 nAChR [2]) was 26 ± 20 µM and the “α7 Imax” value (α7 nAChR [2]) was 0.46 ± 0.08 and 0.46. The “Effect of co-application on the control ACh responses, α1β1εδ” value (shortened to “Effect of co-application … α1β1εδ”) (α1β1εδ nAChR) was 0.506 ± 0.082.

In the case of `CC[N+]1(CC)CCN(c2ccc(C(=O)Nc3cccc(C)c3)cc2)CC1.[I-]` [Compound 3d, 1,1-diethyl-4-(4-(m-tolylcarbamoyl)phenyl)piperazin-1-ium iodide], the “Effect of co-application … α3β4” value (α3β4 nAChR) is reported as 1.039 ± 0.015, the EC50 (α9 nAChR) is reported as 1.28 ± 0.62 µM and the “α9 Imax” value (α9 nAChR) is reported as 1.25 ± 0.14. For the same molecule, the “Effect of co-application … α4β2” value (α4β2 nAChR) was 0.807 ± 0.048, the “Response co-applied with PNU-120596, normalized to ACh co-applied with PNU-120596” value (α7 nAChR [1]) was 0.17 and the EC50 (α9α10 nAChR) was 0.61 ± 0.08 µM. The “α9α10 Imax” value (α9α10 nAChR) was 1.12 ± 0.03, the “Agonist character / efficacy at α7” value (α7 nAChR [2]) was “partial agonists” and the EC50 (α7 nAChR [2]) was 1.3 ± 0.1 µM. For the same molecule, the “α7 Imax” value (α7 nAChR [2]) was 0.60 ± 0.02 and 0.6 and the “Effect of co-application … α1β1εδ” value (α1β1εδ nAChR) was 0.555 ± 0.060.

For `Cc1cccc(NC(=O)c2ccc(N3CC[N+](C)(C)CC3)cc2)n1.[I-]` [Compound 3e, 1,1-dimethyl-4-(4-((6-methylpyridin-2-yl)carbamoyl)phenyl)piperazin-1-ium iodide], the “Effect of co-application … α3β4” value (α3β4 nAChR) was 0.838 ± 0.037, the “Agonist character / efficacy at α9” value (α9 nAChR) was “partial agonist” and the “Fold loss of potency at α9 relative to comparator compound” value (α9 nAChR; [3]) was “about 10 fold”. The EC50 (α9 nAChR) was 7 ± 6 µM, the “α9 Imax” value (α9 nAChR) was 0.51 ± 0.07 and the “Effect of co-application … α4β2” value (α4β2 nAChR) was 0.912 ± 0.038. The “Response co-applied with PNU-120596, normalized to ACh co-applied with PNU-120596” value (α7 nAChR [1]) was 0.16, the “Agonist character / efficacy at α9α10” value (α9α10 nAChR) was “fully efficacious agonist” and the “Fold loss of potency at α9α10 relative to comparator compound” value (α9α10 nAChR; [3]) was “about 10 fold”. For the same molecule, the EC50 (α9α10 nAChR) was 4.2 ± 1.5 µM, the “α9α10 Imax” value (α9α10 nAChR) was 0.89 ± 0.07 and the EC50 (α7 nAChR [2]) was 4.3 ± 1 µM. The “α7 Imax” value (α7 nAChR [2]) was 0.57 ± 0.03 and 0.57 and the “Effect of co-application … α1β1εδ” value (α1β1εδ nAChR) was 0.709 ± 0.091.

With `CC[N+]1(C)CCN(c2ccc(C(=O)Nc3cccc(C)n3)cc2)CC1.[I-]` [Compound 3f, 1-ethyl-1-methyl-4-(4-((6-methylpyridin-2-yl)carbamoyl)phenyl)piperazin-1-ium iodide] the “Effect of co-application … α3β4” value (α3β4 nAChR) was 0.849 ± 0.018, the “Agonist character / efficacy at α9” value (α9 nAChR) was “full agonist” and the “α9 Imax” value (α9 nAChR) was 1.19±0.03. For the same molecule, the “Effect of co-application … α4β2” value (α4β2 nAChR) was 0.858 ± 0.045, the “Response co-applied with PNU-120596, normalized to ACh co-applied with PNU-120596” value (α7 nAChR [1]) was 0.13 and the “α9α10 Imax” value (α9α10 nAChR) was 0.92±0.04. The EC50 (α7 nAChR [2]) was 4.3 to 6.4 µM, the “α7 Imax” value (α7 nAChR [2]) was 0.40 ± 0.02 and 0.4 and the “Effect of co-application … α1β1εδ” value (α1β1εδ nAChR) was 0.413 ± 0.070.
